Here are results for 1 compound from article PMC7763418 (Journal of the American Heart Association: Cardiovascular …, 2020).

Molecules are shown by their SMILES. Where only a bound is given, the exact number is not on record here.

Test [1] concerns healthy male participants. In words: Relative stroke volume. It counts as in vivo, human. The following applies: esmolol 1.25 mg/kg bolus+[…] iv.
Another test deals with cardiac beta 1 receptors. The following applies: esmolol dose used (1.25 mg/kg bolus+[…]); cited from earlier work.
Test [2] concerns healthy male participants. The test can be described thus: Heart rate, arterial line/ECG recording. The following applies: days B and C, after 15 min of esmolol 1.25 mg/kg bolus+[…] iv. The test is classed as in vivo, human.

With `COC(=O)CCc1ccc(OCC(O)CNC(C)C)cc1` (stereo not shown) [esmolol], the “Reduction of mean stroke volume from −15 minutes to baseline” value amounted to 13.7% in test [1] (day B) and 25.8% in test [1] (day C, before glucagon). Further, in the test on cardiac beta 1 receptors, the “Cardiac beta 1 receptors blocked” value is given as over 85%. Further, the “Average heart rate at baseline (0 min)” value in test [2] turned out to be 58.2 bpm.
